Test results reported in US20250092030A1, “ENHANCERS OF PARTICULATE GUANYLYL CYCLASE RECEPTOR A” (Mayo Foundation for Medical Education and Research, priority 2023, published 2025).
pEC50: −log10 of the molar value. Several values for one entry are separate records, joined by “and”; a condition that tells them apart may be missing. Identical values can stand only once. Like-named read-outs stand apart in the source and are kept apart here.

Target: T1, particulate guanylyl cyclase receptor A (pGC-A) (Homo sapiens, UniProt P16066)
T1 construct: expressed in transfected cells; host or cells: HEK293
T1 sequence (P16066 33-1061): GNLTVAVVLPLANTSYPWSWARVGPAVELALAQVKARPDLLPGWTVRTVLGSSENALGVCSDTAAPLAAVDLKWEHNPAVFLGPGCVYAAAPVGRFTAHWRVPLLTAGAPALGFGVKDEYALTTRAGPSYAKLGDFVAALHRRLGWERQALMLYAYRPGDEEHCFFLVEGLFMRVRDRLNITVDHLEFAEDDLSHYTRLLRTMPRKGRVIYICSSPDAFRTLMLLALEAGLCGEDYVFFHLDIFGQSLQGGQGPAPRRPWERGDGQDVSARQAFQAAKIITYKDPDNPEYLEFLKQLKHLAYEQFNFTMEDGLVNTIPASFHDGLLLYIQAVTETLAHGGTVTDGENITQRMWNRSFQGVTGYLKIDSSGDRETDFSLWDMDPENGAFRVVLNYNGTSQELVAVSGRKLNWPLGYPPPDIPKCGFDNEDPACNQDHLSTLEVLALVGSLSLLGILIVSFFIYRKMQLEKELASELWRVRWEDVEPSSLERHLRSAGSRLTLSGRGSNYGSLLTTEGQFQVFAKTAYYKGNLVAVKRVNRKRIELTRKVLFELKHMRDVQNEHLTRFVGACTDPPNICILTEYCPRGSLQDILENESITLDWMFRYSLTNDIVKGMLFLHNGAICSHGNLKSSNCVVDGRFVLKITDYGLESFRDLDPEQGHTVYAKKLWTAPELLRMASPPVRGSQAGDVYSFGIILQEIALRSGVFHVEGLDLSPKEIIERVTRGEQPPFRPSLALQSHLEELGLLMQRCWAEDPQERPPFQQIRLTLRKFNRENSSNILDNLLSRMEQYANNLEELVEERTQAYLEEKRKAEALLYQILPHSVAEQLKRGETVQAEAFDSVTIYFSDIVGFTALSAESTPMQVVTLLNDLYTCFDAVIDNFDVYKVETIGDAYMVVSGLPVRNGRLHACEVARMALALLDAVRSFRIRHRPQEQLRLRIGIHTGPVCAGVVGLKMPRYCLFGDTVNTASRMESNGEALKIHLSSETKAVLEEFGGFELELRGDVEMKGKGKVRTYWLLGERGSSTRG
T1 sequence (P01160 124-151 partner limits assumed): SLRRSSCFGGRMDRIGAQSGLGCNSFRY
Test: cGMP production by HTRF in HEK293 cells overexpressing pGC-A, with ANP
Format: cell-based
Settings: for Emax / Max efficacy: cGMP normalized to maximal amount produced by an EC80 concentration of ANP; for Emax: read-out: Max efficacy; for pEC50: test compound plus EC20 concentration of ANP, cGMP by HTRF
Excerpt: Assay: Generally, the assay monitors the production of cGMP, the second messenger generated by pGC-A, by Time-Resolved Florescence (HTRF) in HEK293 cells overexpressing the pGC-A. pGC-A suspension cells were stimulated in the presence of the test compound and an EC20 concentration of ANP. The quantity of cGMP was detected by competitive immunoassay using Eu^3+ cryptate-labeled anti-cGMP and d2-labeled cGMP and normalized to maximal amount produced by an EC80 concentration of ANP. Compound EC50 values were determined in the primary assay, in the presence or absence of ANP, to determine mode of action as positive modulators and tested for selectivity in the same assay platform but in HEK cells overexpressing the particulate guanylyl cyclase B receptor (pGC-B), of which CNP is the endogenous ligand.
Assay details: 20 nL of 10 μM test compound in DMSO was added to columns 5-48 of 1536 well white high base screening plates (Corning, New York, NY) cells using 550 ECHO acoustic dispenser (Labcyte, San Jose, CA). Alpha-atrial natriuretic peptide (ANP) (Phoenix Pharmaceutics) was prepared as stock aliquots at 5 μM in PBS with 0.1% BSA. An approximate […] concentration of ANP ([…]) in assay buffer (HBSS containing 5 mM HEPES and 0.05% BSA) was added to columns 3-48 at a volume of 1 μL. Assay buffer only was added to column 1 and assay buffer containing a saturating concentration of ANP (5 nM) was added to column 2. HEK293 cells overexpressing GC-A were resuspended in assay media (OptimMem media containing 2% Heat-inactivated Fetal bovine serum and L-glutamine) at a density of 6×10^5 cells/mL and 2 μL were plated in screening plates (1200 cells/well) in suspension using a Bioraptr 2. Plates were spun at 1000 rpm for 1 min and incubated for 30 min at room temperature. 1.5 μL d2-labeled cGMP followed by 1.5 μL Eu^3+ cryptate-labeled anti-cGMP cGMP detection kit (CiBio; #62GM2PEC) prepared according to manufacturer's protocol were added to all wells using a Bioraptr 2 and TR-FRET signal was detected on an EnVision detector (PerkinElmer). Wells treated with 0.3% DMSO only serve as blank controls (column 1); wells treated with 0.3% DMSO and 5 nM ANP (columns 2) serve as positive controls and wells treated with 0.3% DMSO and […] ANP (columns 3-4) serve as negative controls.

[1] = HEK293, HEK293 cells overexpressing pGC-A
[2] = HEK293 cells overexpressing pGC-A

Row | SMILES | Emax [1] [%] | pEC50 [2] | Max efficacy [2] [%] | Emax [2] [%]
1 | N[C@H]1CCCC(C(=O)Nc2nc3c(F)cc(F)cc3s2)C1 (stereo partly drawn) [210C] | 92 | – | – | –
2 | N[C@H]1CCC[C@H](C(=O)Nc2nc3c(F)cc(F)cc3s2)C1 [210C] | – | 5.72 | – | –
3 | N[C@@H]1CCC[C@@H](C(=O)Nc2nc3c(F)cc(F)cc3s2)C1 [210T] | 86 | 6.30 | – | –
4 | CN(C)CCN1CCCC(C(=O)Nc2nc3c(F)cc(F)cc3[nH]2)C1 (stereo not drawn) [249a] | – | < 5.30 | – | –
5 | O=C(Nc1nc2c(F)cc(F)cc2[nH]1)C1CCCNC1 (stereo not drawn) [249b] | 72 | – | – | –
6 | CN(C)CCN1CCCC(C(=O)Nc2nc3c(C(F)(F)F)cccc3s2)C1 (stereo not drawn) [compound 002] | – | < 5.00 | – | –
7 | CN(C)CCN1CCCC(C(=O)Nc2nc3c(-c4ccccc4)cccc3s2)C1 (stereo not drawn) [compound 003] | – | < 5.00 | – | –
8 | CN(C)CCN1CCCC(C(=O)Nc2nc3c(Cc4ccccc4)cccc3s2)C1 (stereo not drawn) [compound 004] | – | < 5.00 | – | –
9 | Cc1cccc2sc(NC(=O)C3CCCN(CCN(C)C)C3)nc12 (stereo not drawn) [compound 005] | – | < 5.00 | – | –
10 | COc1cccc2sc(NC(=O)C3CCCN(CCN(C)C)C3)nc12 (stereo not drawn) [compound 006] | – | < 5.00 | – | –
11 | CN(C)CCN1CCCC(C(=O)Nc2nc3c(C#N)cccc3s2)C1 (stereo not drawn) [compound 007] | 41 | 6.22 | – | –
12 | CN(C)CCN1CCCC(C(=O)Nc2nc3cc(F)ccc3s2)C1 (stereo not drawn) [compound 010] | – | < 5.00 | – | –
13 | CN(C)CCN1CCCC(C(=O)Nc2nc3cc(Cl)ccc3s2)C1 (stereo not drawn) [compound 011] | – | < 5.00 | – | –
14 | COc1ccc2sc(NC(=O)C3CCCN(CCN(C)C)C3)nc2c1 (stereo not drawn) [compound 013] | – | < 5.00 | – | –
15 | CN(C)CCN1CCCC(C(=O)Nc2nc3ccc(F)cc3s2)C1 (stereo not drawn) [compound 015] | – | < 5.00 | – | –
16 | CN(C)CCN1CCCC(C(=O)Nc2nc3ccc(Cl)cc3s2)C1 (stereo not drawn) [compound 016] | 94 | 5.02 | – | –
17 | Cc1ccc2nc(NC(=O)C3CCCN(CCN(C)C)C3)sc2c1 (stereo not drawn) [compound 017] | – | < 5.00 | – | –
18 | COc1ccc2nc(NC(=O)C3CCCN(CCN(C)C)C3)sc2c1 (stereo not drawn) [compound 018] | – | < 5.00 | – | –
19 | CN(C)CCN1CCCC(C(=O)Nc2nc3c(F)cc(C(F)(F)F)cc3s2)C1 (stereo not drawn) [compound 019] | – | < 5.30 | – | –
20 | Cc1cc(F)c2nc(NC(=O)C3CCCN(CCN(C)C)C3)sc2c1 (stereo not drawn) [compound 020] | 101 | 6.05 | – | –
21 | COc1cc(F)c2nc(NC(=O)C3CCCN(CCN(C)C)C3)sc2c1 (stereo not drawn) [compound 021] | – | 5.17 and 5.77 | 77 | –
22 | CN(C)CCN1CCCC(C(=O)Nc2nc3c(F)cc(-c4ccccc4)cc3s2)C1 (stereo not drawn) [compound 022] | – | < 5.30 | – | –
23 | COC(=O)c1cc(F)c2nc(NC(=O)C3CCCN(CCN(C)C)C3)sc2c1 (stereo not drawn) [compound 023] | – | < 5.30 | – | –
24 | CCOc1cc(F)c2nc(NC(=O)C3CCCN(CCN(C)C)C3)sc2c1 (stereo not drawn) [compound 026] | – | < 5.30 | – | –

Row | SMILES | Emax [1] [%] | pEC50 [2] | Max efficacy [2] [%] | Emax [2] [%]
25 | COCc1cc(F)c2nc(NC(=O)C3CCCN(CCN(C)C)C3)sc2c1 (stereo not drawn) [compound 029] | – | < 5.30 | – | –
26 | COCc1cc(F)c2nc(NC(=O)C3CCCNC3)sc2c1 (stereo not drawn) [compound 030] | – | < 5.30 | – | –
27 | CN(C)CCN1CCCC(C(=O)Nc2nc3cccc(F)c3s2)C1 (stereo not drawn) [compound 032] | 85 | 5.37 | – | –
28 | CN(C)CCN1CCCC(C(=O)Nc2nc3cccc(Cl)c3s2)C1 (stereo not drawn) [compound 033] | 82 | 5.66 and 5.92 | 63 | –
29 | Cc1cccc2nc(NC(=O)C3CCCN(CCN(C)C)C3)sc12 (stereo not drawn) [compound 034] | 99 | 5.23 | – | –
30 | CN(C)CCN1CCCCC1C(=O)Nc1nc2c(F)cc(F)cc2s1 (stereo not drawn) [compound 037] | 96 | – | – | –
31 | CN1CCC(N2CCCCC2C(=O)Nc2nc3c(F)cc(F)cc3s2)C1 (stereo not drawn) [compound 038] | – | < 5.30 | – | –
32 | CN(C)CCCN1CCCCC1C(=O)Nc1nc2c(F)cc(F)cc2s1 (stereo not drawn) [compound 041] | 101 | 5.82 | – | –
33 | O=C(Nc1nc2c(F)cc(F)cc2s1)C1CNCCN1C(=O)OCc1ccccc1 (stereo not drawn) [compound 043] | – | < 5.30 | – | –
34 | CN(C)CCN1CCOC(C(=O)Nc2nc3c(F)cc(F)cc3s2)C1 (stereo not drawn) [compound 046] | – | < 5.30 | – | –
35 | O=C(Nc1nc2c(F)cc(F)cc2s1)C1CNCCO1 (stereo not drawn) [compound 047] | – | < 5.30 | – | –
36 | O=C(Nc1nc2c(F)cc(F)cc2s1)C1CCC2CCC1N2 (stereo not drawn) [compound 049] | – | 6.52 | – | 98
37 | CN(C)CCN1CCCC1C(=O)Nc1nc2c(F)cc(F)cc2s1 (stereo not drawn) [compound 053] | 92 | 6.10 | – | –
38 | CN(C)CCN1CCCCC(C(=O)Nc2nc3c(F)cc(F)cc3s2)C1 (stereo not drawn) [compound 055] | 89 | 6.22 | – | –
39 | CN(C)CCN1CC(C(=O)Nc2nc3c(F)cc(F)cc3s2)Cc2ccccc21 (stereo not drawn) [compound 057] | – | < 5.30 | – | –
40 | O=C(Nc1nc2c(F)cc(F)cc2s1)C1CNc2ccccc2C1 (stereo not drawn) [compound 058] | 95 | 5.59 | – | –
41 | CN(C)CCN1Cc2ccccc2C(C(=O)Nc2nc3c(F)cc(F)cc3s2)C1 (stereo not drawn) [compound 059] | – | < 5.30 | – | –
42 | O=C(Nc1nc2c(F)cc(F)cc2s1)C1CNCc2ccccc21 (stereo not drawn) [compound 060] | – | < 5.30 | – | –
43 | CN(C)CCN1CC2(C(=O)Nc3nc4c(Cl)cc(F)cc4s3)CCC1CC2 [compound 061] | 94 | 5.99 | – | –
44 | O=C(Nc1nc2c(F)cc(F)cc2s1)C12CCC(CC1)NC2 [compound 062] | 92 | 5.47 | – | –
45 | CN(C)c1ccc(N2CCCC(C(=O)Nc3nc4c(F)cc(F)cc4s3)C2)cc1 (stereo not drawn) [compound 066] | 77 | 5.72 | – | –
46 | O=C(Nc1nc2c(F)cc(F)cc2s1)C1CCCN(CCn2cccn2)C1 (stereo not drawn) [compound 067] | 88 | 6.15 | – | –
47 | O=C(Nc1nc2c(F)cc(F)cc2s1)C1CCCN(CCn2ccnc2)C1 (stereo not drawn) [compound 068] | 89 | 6.05 | – | –
